{"source": "patent US20030026872A1", "about": "“Compositions having enhanced aqueous solubility and methods of their preparation” (The Procter & Gamble Co., priority 2001, published 2003)", "origin": "cited, not measured here", "conditions": "relative to sucrose", "note": "Peptide text beside a SMILES is read from it."}
{"molecule": "CC1=CC(=O)[N-]S(=O)(=O)O1.[K+]", "note": "[acesulfame K]", "values": [{"measurement": "relative sweetening intensity (RSI)", "result": "about 200 times that of sucrose"}]}
{"molecule": "C[C@@H](NC(=O)[C@@H](N)CC(=O)O)C(=O)NC1C(C)(C)SC1(C)C", "note": "[alitame]", "values": [{"measurement": "relative sweetening intensity (RSI)", "result": "about 2000 times that of sucrose"}]}
{"molecule": "COC(=O)[C@H](Cc1ccccc1)NC(=O)[C@@H](N)CC(=O)O", "note": "[aspartame, N-L-alpha-aspartyl-phenylalanine-l-methyl ester] (H-Asp-Phe-OMe)", "values": [{"measurement": "relative sweetening intensity (RSI)", "result": "about 180 times that of sucrose"}]}
{"molecule": "OC[C@@H](O)[C@@H](O)CO", "note": "[erythritol]", "values": [{"measurement": "relative sweetening intensity (RSI)", "result": "about 0.7 times that of sucrose"}]}
{"molecule": "CC(C)=CCC[C@](C)(O)[C@@H]1CCC(C)=CC1=O", "note": "[hemandulcin]", "values": [{"measurement": "relative sweetening intensity (RSI)", "result": "about 1000 times that of sucrose"}]}
{"molecule": "OC[C@@H](O)[C@@H](O[C@@H]1O[C@H](CO)[C@H](O)[C@H](O)[C@H]1O)[C@H](O)[C@@H](O)CO", "note": "[lactitol]", "values": [{"measurement": "relative sweetening intensity (RSI)", "result": "about 0.4 times that of sucrose"}]}
{"molecule": "OC[C@@H](O)[C@@H](O[C@H]1O[C@H](CO)[C@@H](O)[C@H](O)[C@H]1O)[C@H](O)[C@@H](O)CO", "note": "[maltitol]", "values": [{"measurement": "relative sweetening intensity (RSI)", "result": "about 0.8 times that of sucrose"}]}
{"molecule": "OC[C@@H](O)[C@@H](O)[C@H](O)[C@H](O)CO", "note": "[mannitol]", "values": [{"measurement": "relative sweetening intensity (RSI)", "result": "about 0.7 times that of sucrose"}]}
{"molecule": "O=C1NS(=O)(=O)c2ccccc21", "note": "[saccharin]", "values": [{"measurement": "relative sweetening intensity (RSI)", "result": "about 300 times that of sucrose"}]}
{"molecule": "OC[C@@H](O)[C@@H](O)[C@H](O)[C@@H](O)CO", "note": "[sorbitol]", "values": [{"measurement": "relative sweetening intensity (RSI)", "result": "about 0.6 times that of sucrose"}]}
{"molecule": "C=C1C[C@@]23CC[C@H]4[C@@](C)(CCC[C@@]4(C)C(=O)O[C@@H]4O[C@H](CO)[C@@H](O)[C@H](O)[C@H]4O)[C@@H]2CC[C@]1(O[C@@H]1O[C@H](CO)[C@@H](O)[C@H](O)[C@H]1O[C@@H]1O[C@H](CO)[C@@H](O)[C@H](O)[C@H]1O)C3", "note": "[stevioside]", "values": [{"measurement": "relative sweetening intensity (RSI)", "result": "about 300 times that of sucrose"}]}
{"molecule": "OC[C@H]1O[C@H](O[C@]2(CCl)O[C@H](CCl)[C@@H](O)[C@@H]2O)[C@H](O)[C@@H](O)[C@H]1Cl", "note": "[sucralose]", "values": [{"measurement": "relative sweetening intensity (RSI)", "result": "about 600 times that of sucrose"}]}
{"molecule": "OC[C@H]1O[C@@](CO)(O[C@H]2O[C@H](CO)[C@@H](O)[C@H](O)[C@H]2O)[C@@H](O)[C@@H]1O", "note": "[sucrose]", "values": [{"measurement": "relative sweetening intensity (RSI)", "result": "one"}]}
{"molecule": "OC[C@@H](O)[C@H](O)[C@@H](O)CO", "note": "[xylitol]", "values": [{"measurement": "relative sweetening intensity (RSI)", "result": "about equal to sucrose"}]}
{"molecule": "cyclamates", "values": [{"measurement": "relative sweetening intensity (RSI)", "result": "about 30 times that of sucrose"}]}
{"molecule": "isomalt", "values": [{"measurement": "relative sweetening intensity (RSI)", "result": "about 0.5 times that of sucrose"}]}
